Data reported in patent publication US20240132931A1, “Biological Indicator with Enhanced Volatile Organic Compound Detection” (O&M Halyard, Inc., priority 2022, published 2024).

Key:
[1] = test system: Geobacillus stearothermophilus spores; assay: VOC production (SPME, GC-MS) during the first 20 minutes of spore germination, growth medium with or without additive (Example 1); type: cell-based
Protocol: Spore suspension of Geobacillus stearothermophilus (1×10^6 CFU/0.1 mL) were diluted to reach a concentration of 500-800 CFU/30-50 μL after being heat shock for 15 min at 95-99° C. to kill all vegetative cell that might have been present in the suspension.
A modified soybean casein digest broth was diluted (10×) with HPLC grade water and sterilize by filtration 0.45 μm to limit the amount of VOC in the background. was used with or without the addition of an additive.
For the VOC testing, 0.5 mL of the sterile diluted growth medium was transferred in each VOC collection vials. The vials were prewarm at 60° C. for at least 10 minutes. Before starting the VOC sampling, the additive was added to the vials, then the spores according to Table 1 in function of the test to be performed. The VOC were sampled by inserting the SPME fiber into the vial as soon as the spores were added, and the vials were put back in the temperature control systems. The SPME fiber use was an assembly Divinylbenzene/Carboxen/Polydimethylsiloxane (DVB/CAR/PDMS) (Sigma Aldrich—product number 57328-U from Supelco) conditioned at 270° C. for 30 minutes before use. The SPME fibers were removed 20 minutes after the addition of the spores and were analyzed using the GC-MS according to the lab protocols for the apparatus.

[2] = test system: Geobacillus stearothermophilus spores; assay: VOC production (SPME, GC-MS) during the first 15 minutes of spore germination, growth medium with L-threonine or glucose (Example 2); type: cell-based
Protocol: Spore suspension of Geobacillus stearothermophilus (1×10^6 CFU/0.1 mL) were heated for 30 min at 99-100° C. to kill all vegetative cell that might have been present in the suspension.
A growth medium composed of a modified soybean casein digest broth diluted (200×) with the sterilized germination medium (1,0 mM L-valine in 10 mM sodium phosphate buffer (pH 8.0) as described by “thou T, Dong Z, Setlow P, Li Y-q (2013), Kinetics of Germination of Individual Spores of Geobacillus stearothermophilus as Measured by Raman Spectroscopy and Differential Interference Contrast Microscopy. PLoS ONE 8(9): e74987)” was used with or without the addition of L-threonine or glucose at 5 mM. One test was also performed with the germination medium by itself, without the modified soybean casein digest broth diluted (200×) and the additives. The controls included the SPME fiber alone, in the presence of 2500 μg methanol, and growth medium with and without the L-Threonine or glucose.
For the VOC testing, 0.5 mL of the control solution (methanol) or sterile growth medium was transferred in each VOC collection vials. The vials were prewarm at 65° C. for at least 10 minutes. […] The SPME fibers were removed 15 minutes after the addition of the spores and were analyzed using the GC-MS according to the lab protocols for the apparatus.

[3] = GM + spores (about 500-800 CFU) + additive 5 mM, 60° C., 20 minutes

How did the “Detection of 1-Nonene, Nonane, 1-Octene, Octane, Heptane” value ([1]; Example 1) turn out when `CO[C@H]1O[C@H](CO)[C@@H](O)[C@H](O)[C@H]1O` [Additive, Methyl alpha-D-glucopyranoside] was run?
The value was “detected only in the presence of the additive”.

And the “Propene concentration change from the presence of the additive” value ([1]; Example 1)?
The value was “not increasing”.

And the “1-butanol intensity in comparison to the growth medium intensity” value [1, 3]?
The value was “(+up to 3X)”.

And the “Acetaldehyde intensity in comparison to the growth medium intensity” value [1, 3]?
Its value is “to 2X”.

What about the “Formaldehyde intensity in comparison to the growth medium intensity” value [1, 3] of the same molecule?
The value was “(+10X)”.

What about the “Nonanal Octanal Heptanal intensity in comparison to the growth medium intensity” value [1, 3] of the same molecule?
Its value is “(up to 3X)”.

Which “Formation of common VOC such as 1-nonene” value ([2]; Example 2) does the source give for `C[C@@H](O)[C@H](N)C(=O)O` [L-threonine] here?
The value was “leads to the formation”.

And the “Butanal produced (qualitative amount)” value ([2]; GM + 5 mM additive + 5000-10000 spores, 65° C., 15 minutes)?
Its value is “<control”.
